Results taken from patent US11642671B2, “Electrowetting on dielectric (EWOD) device to perform liquid-to-liquid extraction (LLE) of biomolecules and systems and methods for using the EWOD device” (Board of Regents, The University of Texas System, priority 2019, dated 2023).

Test: Multistage LLE (MLLE) of binary dye mixture on EWOD device with IL extractant
Type: physicochemical
Conditions: binary 1:1 green/yellow dye sample
Procedure: The sample phase was prepared by mixing equal amounts of these two dyes. The final concentration of each analyte in the sample mixture formed was 1250 μg/ml for all the EWOD LLE experiments. […]
For the LLE process on an EWOD DMF electrode array, the droplets were generated, mixed, and split during the process. […] The on-chip concentration method quantified the yield of the LLE process. […]
In order to explore this characteristic of EWOD, MLLE was performed in this study with two cycles of LLE. […] After each cycle of the process, the sample droplet was transported to the concentration measurement electrode, and the voltage measurement was done for absorbance.
Next, the results of binary separation by MLLE performed on the EWOD device 20 was compared with theoretical values. The theoretical values were calculated from the partition coefficient values of each solute obtained in the manner described above. […]

Cc1ccc(Nc2ccc(Nc3ccc(C)cc3S(=O)(=O)[O-])c3c2C(=O)c2ccccc2C3=O)c(S(=O)(=O)[O-])c1.[Na+].[Na+] [green dye, acid green 25]
green dye extracted after first cycle of LLE on EWOD (IL extractant, extraction time 5 minutes): ~50%
initial green dye extracted at the end of the second cycle (fresh IL droplet, two MLLE cycles): ~60%
